# According to paper PMC9354243, “The Role of Tryptophan in π Interactions in Proteins: An Experimental Approach” (Journal of the American Chemical Society, 2022):
# Key:
# [1] = target: T1, RibU W97Y labeled with 5,6,7triFW (Lactococcus lactis subsp. cremoris, UniProt D8KIE9, W97Y); experiment: Fluorescence titration of RibU with RBF, 5,6,7triFW variant; assay type: binding
# T1 construct: His10; made in house; host or cells: Lactococcus lactis Trp auxotroph NZ9000-trp with pMG36e-trpRS
# Experimental: Fluorescence titration experiments of the different RibU constructs with RBF at 20 °C allowed estimation of the impact of W68 fluorination or 5-methylation on the binding affinity (Figure 3 and Table 5).
# Figure 3 Titration of Trp analog labeled RibU W97Y proteins with RBF. The RBF fluorescence was measured at the indicated RBF concentrations in the absence (triangles) or presence (dots) of the W97Y RibU variant (see insets). The difference between these two signals were calculated to build the titration curve. This curve was used to compute the RBF Kd (see Experimental Section in the Supporting Information). […]
# Binding assays – Fluorescence titrations of RibU with RBF.
# The concentration of the riboflavin stock was established using a Jasco V-650 spectrophotometer with an ε435 of 12600 M-1.cm-1 The concentration of RibU-His was calculated using a Nanodrop (Thermo […]
# Riboflavin was excited at 435 nm and emission was recorded between 450 nm and 700 nm using a FluoroLog 322 Spectrofluorometer (Jobin Yvon). […] Titration experiments were performed in a 1 mL quartz cuvette at 20 °C as described.13 In brief, purified and desalted RibU protein in gel filtration buffer was titrated with RBF and after each addition the emission spectrum was recorded twice, corrected for buffer emission and instrument response and integrated. […]
# [2] = tested on: RibU W68Y mutant; set-up: method as in PMID 17289680; details: W68Y mutant versus RibU; cited from earlier work
# T1 sequence (D8KIE9 whole entry W97Y): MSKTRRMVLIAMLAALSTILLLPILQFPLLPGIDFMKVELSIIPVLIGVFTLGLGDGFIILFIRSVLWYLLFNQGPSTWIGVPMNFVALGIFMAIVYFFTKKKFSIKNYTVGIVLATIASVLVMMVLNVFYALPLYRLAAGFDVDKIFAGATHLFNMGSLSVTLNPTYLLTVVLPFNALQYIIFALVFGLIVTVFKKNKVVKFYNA
smiles,measurement,setting,value
"Cc1cc2nc3c(=O)[nH]c(=O)nc-3n(C[C@H](O)[C@H](O)[C@H](O)CO)c2cc1C [RBF, riboflavin]",Kd,[1],24.9 ± 2.7 nM
same,Fold lowering of the affinity by progressive fluorination of W68,"[1]; 20 °C, up to three fluoro-atoms introduced",15 fold
same,Fold drop of RBF binding affinity,[2],~100 fold
